# Test results: patent US8562945B2, “Technetium- and rhenium-bis(heteroaryl) complexes and methods of use thereof” (Molecular Insight Pharmaceuticals, Inc., priority 2008, dated 2013)
# Columns and labels:
# [1] = Rat tissue distribution of 99mTc complexes of example ligands (Table 6); assay type: in vivo, Sprague-Dawley Rats; conditions: 99mTc complex
# Description: Rat Tissue Distribution Studies. The distribution and pharmacokinetics of selected ^99mTc-SAAC complexes were evaluated in normal male Sprague Dawley rats (180-200 grams) administered via the tail vein as a bolus injection (approximately 10 μCi/rat) in a constant volume of 0.1 ml. The animals (n=5 per time point) were euthanized by asphyxiation with carbon dioxide at 5, 30, 60, and 120 min post injection. Tissues (blood, heart, lungs, liver, spleen, kidneys, adrenals, stomach, intestines (with contents), testes, skeletal muscle, bone and brain) were dissected, excised, weighed wet, and counted in an automated γ-counter (LKB Model 1282, Wallac Oy, Finland). Tissue time-radioactivity levels expressed as percent injected dose per gram of tissue (% ID/g) was determined.
# ^99mTc Complexes of various example ligands in Sprague-Dawley Rats.
# [2] = Determination of Log P values of 99mTc-SAAC complexes; assay type: physicochemical; conditions: 99mTc complex; n-octanol / 25 mM pH=7.4 phosphate buffer
# Description: Determination of Log P Values. The Log P values of the ^99mTc(I)-complexes were determined as follows. The ^99mTc-SAAC complexes were prepared and purified by RP-HPLC. The desired peak was collected and the sample was evaporated under a stream of nitrogen. The residue was dissolved in 25 μL of saline and placed in an equal volume of n-octanol (3 mL) and 25 mM pH=7.4 phosphate buffer (3 mL). The samples were mixed under vortex for 20 min, centrifuged at 8000 rpm for 5 min and three 100 μL aliquots were removed from both the aqueous and the organic layers for analysis on a gamma counter (Wallac 1282). Subsequently, 1 mL of the phosphate bufferTc-complex solution was removed and the process was repeated with fresh n-octanol, for a total number of six extractions to ensure full extraction of all the organic components. The partition coefficients were calculated using the equation: P=(activity concentration in n-octanol)/(activity concentration in aqueous layer). The Log P values reported were calculated from the average of the different measurements.
# [3] = Normal rat tissue distribution studies of 99mTc-SAAC complexes (Table 5); assay type: in vivo, male Sprague Dawley rats; conditions: tail vein, average ± SEM
# Description: Normal Rat Tissue Distribution Studies. Normal rat tissue distribution studies were performed with [^99mTc(CO)3{η^3-(DpK)}], [Tc(CO)3{η^3-(DTK)}] and [Tc(CO)3{η^3-(PAMAK)}] in groups of male Sprague Dawley rats (n=4/group, 180-200 grams each) at 5, 30, 60, and 120 minutes post injection. The compounds were injected via the tail vein in saline (10 μCi/100 μl). […] All three SAAC ligands had very high accumulation and retention in the gastrointestinal (GI) tract. […] The design of hydrophilic SAAC ligands may alter the pharmacokinetics by mitigating the lipophilicity of the complex and potentially favoring renal, over liver and GI clearance. Such a result may facilitate the development of clinically relevant molecular imaging radiopharmaceuticals with desirable pharmacokinetic properties.
Blood tissue distribution ([1]; 5 min),Blood tissue distribution ([1]; 30 min),Blood tissue distribution ([1]; 60 min),Blood tissue distribution ([1]; 120 min),GI tissue distribution ([1]; 5 min),GI tissue distribution ([1]; 30 min),GI tissue distribution ([1]; 60 min),GI tissue distribution ([1]; 120 min),Kidney tissue distribution ([1]; 5 min),Kidney tissue distribution ([1]; 30 min),Kidney tissue distribution ([1]; 60 min),Kidney tissue distribution ([1]; 120 min),Liver tissue distribution ([1]; 5 min),Liver tissue distribution ([1]; 30 min),Liver tissue distribution ([1]; 60 min),Liver tissue distribution ([1]; 120 min),Sk. Muscle tissue distribution ([1]; 5 min),Sk. Muscle tissue distribution ([1]; 30 min),Sk. Muscle tissue distribution ([1]; 60 min),Sk. Muscle tissue distribution ([1]; 120 min),Compound,further results
1.18 ± 0.18 % ID/g,0.28 ± 0.03 % ID/g,0.11 ± 0.02 % ID/g,0.03 ± 0.01 % ID/g,0.15 ± 0.02 % ID/g,0.45 ± 0.11 % ID/g,0.84 ± 0.1 % ID/g,1.12 ± 0.37 % ID/g,6.65 ± 2.06 % ID/g,22.2 ± 3.9 % ID/g,25.4 ± 1.7 % ID/g,25.5 ± 3.4 % ID/g,0.8 ± 0.28 % ID/g,1.03 ± 0.21 % ID/g,0.86 ± 0.16 % ID/g,0.74 ± 0.14 % ID/g,0.22 ± 0.03 % ID/g,0.06 ± 0.02 % ID/g,0.03 ± 0.01 % ID/g,0.01 ± 0 % ID/g,"Cn1ccnc1CN(CCCC[C@H](N)C(=O)O)Cc1nccn1C [Compound 13, (S)-2-amino-6-(bis((1-methyl-1H-imidazol-2-yl)methyl)amino)hexanoic acid]",–
–,–,–,–,–,–,–,–,–,–,–,–,–,–,–,–,–,–,–,–,(pyridylamine)monoacetic acid lysine [PAMA-K],Log P [2]: −1.80
1.33 ± 0.2 % ID/g,1.14 ± 0.23 % ID/g,0.86 ± 0.17 % ID/g,0.72 ± 0.12 % ID/g,0.15 ± 0.02 % ID/g,0.44 ± 0.08 % ID/g,0.76 ± 0.31 % ID/g,1.22 ± 0.27 % ID/g,6.85 ± 1.85 % ID/g,10.7 ± 2.3 % ID/g,16.8 ± 4.8 % ID/g,10.2 ± 2.5 % ID/g,0.52 ± 0.07 % ID/g,0.55 ± 0.07 % ID/g,0.42 ± 0.08 % ID/g,0.39 ± 0.07 % ID/g,0.29 ± 0.04 % ID/g,0.21 ± 0.06 % ID/g,0.16 ± 0.03 % ID/g,0.14 ± 0.02 % ID/g,"N[C@@H](CCCCN(Cc1nccn1CC(=O)O)Cc1nccn1CC(=O)O)C(=O)O (stereo in doubt) [Compound 2, 2,2′-(2,2′-(5-amino-5-carboxypentylazanediyl)bis(methylene)bis(1H-imidazole-2,1-diyl))diacetic acid]",–
1.03 ± 0.14 % ID/g,0.45 ± 0.1 % ID/g,0.22 ± 0.02 % ID/g,0.09 ± 0.01 % ID/g,0.16 ± 0.01 % ID/g,1.96 ± 0.49 % ID/g,1.64 ± 0.64 % ID/g,2.53 ± 0.7 % ID/g,10.79 ± 1.97 % ID/g,17.05 ± 3.17 % ID/g,9.52 ± 2.54 % ID/g,3.94 ± 0.43 % ID/g,0.95 ± 0.14 % ID/g,3.02 ± 0.59 % ID/g,0.98 ± 0.22 % ID/g,0.44 ± 0.14 % ID/g,0.21 ± 0.05 % ID/g,0.09 ± 0.02 % ID/g,0.05 ± 0.01 % ID/g,0.02 ± 0 % ID/g,"Cn1ccnc1CN(CCCC[C@H](N)C(=O)O)CC(=O)O [Compound 18, (S)-2-amino-6-((carboxymethyl)((1-methyl-1H-imidazol-2-yl)methyl)amino) hexanoic acid]",–
0.83 ± 0.09 % ID/g,0.09 ± 0.02 % ID/g,0.02 ± 0 % ID/g,0.01 ± 0 % ID/g,0.57 ± 0.13 % ID/g,2.33 ± 0.61 % ID/g,3.62 ± 0.3 % ID/g,2.96 ± 0.44 % ID/g,6.86 ± 0.86 % ID/g,12.13 ± 2.36 % ID/g,12.54 ± 1 % ID/g,12.54 ± 0.81 % ID/g,1.61 ± 0.32 % ID/g,0.35 ± 0.08 % ID/g,0.28 ± 0.07 % ID/g,0.14 ± 0.02 % ID/g,0.13 ± 0.02 % ID/g,0.02 ± 0.01 % ID/g,0.01 ± 0 % ID/g,0.01 ± 0 % ID/g,"CCOCCn1ccnc1CN(CCCC[C@H](N)C(=O)O)Cc1nccn1CCOCC (stereo in doubt) [Compound 4, 2-amino-6-(bis((1-(2-ethoxyethyl)-1H-imidazol-2-yl)methyl)amino)hexanoic acid]",–
1.46 ± 0.21 % ID/g,0.47 ± 0.05 % ID/g,0.14 ± 0.04 % ID/g,0.04 ± 0.01 % ID/g,0.34 ± 0.12 % ID/g,1.05 ± 0.2 % ID/g,1.39 ± 0.24 % ID/g,1.21 ± 0.27 % ID/g,13.82 ± 2.81 % ID/g,34.1 ± 5.59 % ID/g,40.25 ± 5.17 % ID/g,33.18 ± 2.75 % ID/g,1.06 ± 0.34 % ID/g,0.45 ± 0.04 % ID/g,0.24 ± 0.04 % ID/g,0.16 ± 0.02 % ID/g,0.3 ± 0.04 % ID/g,0.1 ± 0.01 % ID/g,0.04 ± 0.01 % ID/g,0.01 ± 0 % ID/g,"COC(Cn1ccnc1CN(CCCC[C@H](N)C(=O)O)Cc1nccn1CC(OC)OC)OC (stereo in doubt) [Compound 6, 2-amino-6-(bis((1-(2,2-dimethoxyethyl)-1H-imidazol-2-yl)methyl)amino)hexanoic acid]",–
–,–,–,–,–,–,–,–,–,–,–,–,–,–,–,–,–,–,–,–,[^99mTc(CO)3(DPK)],Blood tissue distribution ([3]; 5 Min post injection): 7.01 ± 1.38 % ID/g; Blood tissue distribution ([3]; 30 Min. post injection): 1.12 ± 0.31 % ID/g; Blood tissue distribution ([3]; 60 Min. post injection): 0.39 ± 0.16 % ID/g; Blood tissue distribution ([3]; 120 Min post injection): 0.18 ± 0.01 % ID/g; GI tissue distribution ([3]; 5 Min post injection): 4.65 ± 1.78 % ID/g; GI tissue distribution ([3]; 30 Min. post injection): 15.01 ± 1.82 % ID/g; GI tissue distribution ([3]; 60 Min. post injection): 24.46 ± 6.20 % ID/g; GI tissue distribution ([3]; 120 Min post injection): 38.90 ± 5.94 % ID/g; Kidney tissue distribution ([3]; 5 Min post injection): 8.88 ± 3.20 % ID/g; Kidney tissue distribution ([3]; 30 Min. post injection): 9.72 ± 0.68 % ID/g; Kidney tissue distribution ([3]; 60 Min. post injection): 9.47 ± 1.23 % ID/g; Kidney tissue distribution ([3]; 120 Min post injection): 7.08 ± 1.58 % ID/g; Liver tissue distribution ([3]; 5 Min post injection): 16.28 ± 5.12 % ID/g; Liver tissue distribution ([3]; 30 Min. post injection): 26.03 ± 1.50 % ID/g; Liver tissue distribution ([3]; 60 Min. post injection): 22.71 ± 1.14 % ID/g; Liver tissue distribution ([3]; 120 Min post injection): 14.44 ± 2.75 % ID/g
–,–,–,–,–,–,–,–,–,–,–,–,–,–,–,–,–,–,–,–,NC(CCCCN1CC(=O)[O][Tc-][O]C(=O)C1)C(=O)O.[C-]#[O+].[C-]#[O+].[C-]#[O+] (stereo not shown) [Compound 7-Tc],Log P [2]: −2.20
